From US5166214A, “Use of imidazoles for the treatment of atherosclerosis” (priority 1990, dated 1992)
Counter-ions that a name gives are not always drawn. Like-named read-outs stand apart in the source and are kept apart here.

Tests used:
[1] = target: T1, Acyl-CoA: Cholesterol Acyltransferase (ACAT) (Rattus norvegicus, UniProt Q7TQM4); assay: Inhibition of acyl-CoA: cholesterol acyltransferase (ACAT) in hepatic microsomes (in vitro); format: biochemical, rat (male Sprague Dawley)
T1 construct: Microsomes were obtained by differential centrifugation; from tissue; host or cells: liver microsomes of male Sprague Dawley rats
T1 sequence (Q7TQM4 1-524): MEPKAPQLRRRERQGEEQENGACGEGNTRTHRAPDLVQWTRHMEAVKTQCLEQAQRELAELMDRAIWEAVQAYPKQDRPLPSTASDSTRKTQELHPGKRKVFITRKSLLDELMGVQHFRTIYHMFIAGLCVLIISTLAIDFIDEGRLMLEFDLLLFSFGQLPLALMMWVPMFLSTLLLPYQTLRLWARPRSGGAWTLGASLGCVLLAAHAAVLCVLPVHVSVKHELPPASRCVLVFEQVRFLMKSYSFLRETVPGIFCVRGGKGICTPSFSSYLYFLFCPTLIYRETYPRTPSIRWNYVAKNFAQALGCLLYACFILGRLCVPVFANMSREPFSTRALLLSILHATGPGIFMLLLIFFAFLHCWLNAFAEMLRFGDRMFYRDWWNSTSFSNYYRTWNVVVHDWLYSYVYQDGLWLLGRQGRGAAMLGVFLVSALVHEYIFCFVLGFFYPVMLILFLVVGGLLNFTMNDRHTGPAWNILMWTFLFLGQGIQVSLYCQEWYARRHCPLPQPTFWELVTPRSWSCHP
Protocol: A. Assay of the Inhibition of Acyl-CoA: Cholesterol Acyltransferase (ACAT) in Hepatic Microsomes
The ability of the compounds to inhibit ACAT, the enzyme responsible for the intracellular synthesis of cholesteryl esters, was tested as follows. Male Sprague Dawley rats weighing 150-300 g, were fed rat chow ad libitum. The animals were fasted for twenty-four hours prior to being sacrificed by decapitation. The livers were perfused in situ with 50 ml of cold 0.25M sucrose, excised, and homogenized in three volumes of 0.1M phosphate buffer, pH 7.4, that contained 0.5 mM EDTA (ethylenediaminetetraacetic acid), 1.0 mM glutathione, 0.25M sucrose and […]. Microsomes were obtained by differential centrifugation; the supernatant from an initial spin at 15,000×g for 15 minutes was centrifuged at 105,000×g for 1 hour to pellet the microsomes. The microsomes were suspended in homogenization buffer, reisolated by centrifugation, and stored at -70° C. Microsomes were used within one month of preparation.
The control assay in a final volume of 200 μl consisted of 200 μg of microsomal protein, 75 μM ^14 C-oleoyl-CoA (10,000 dpm/nmol) in 0.1M phosphate, pH 7.4, that contained 1 mM glutathione. Compounds were added in 5 μl of DMSO (dimethyl sulfoxide) and additional controls were run with DMSO only. All components, except the oleoyl-CoA, were preincubated for 15 min. at 37° C. prior to the initiation of the reaction by the addition of oleoyl-CoA. The assay was terminated after 10 min by the addition of 4 ml of chloroform:methanol (2:1, v/v). 20,000 dpm of ^3 H-cholesteryl oleate and 10 μg of unlabeled cholesteryl oleate and oleic acid were added as an internal standard and carriers, respectively. After allowing 10 min. for lipid extraction, the samples were centrifuged at 1,000×g for 10 min. to separate the solvent layers. The chloroform layer containing the neutral lipids was spotted onto a Baker SI250-Pa silica gel TLC plate and the plate developed using a hexane: diethyl ether: acetic acid (170:30:1 v/v/v) mobile phase. The lipids were visualized by their interaction with iodine vapor and the cholesteryl ester spot was scraped into a scintillation vial and counted.

[2] = test system: murine macrophage-like cell line J774.A1; assay: Inhibition of cholesterol esterification in mammalian cells (macrophage assay); format: cell-based
Protocol: B. Assay of the Inhibition of Cholesterol Esterification in Mammalian Cells
The esterification of cholesterol was determined in the murine macrophage-like cell line J774.A1. Cells were seeded in 35 mm wells at a density of 300,000 cells per well in 2 mls of Dulbecco's Eagle Medium (DMEM) supplemented with 10% fetal bovine serum (FBS). Cells were incubated at 37° C. in an atmosphere of 5% CO2 and 93% humidity. After 24 hours the media was changed to 0.68 mls 10% FBS-DMEM containing 34 μg of acetylated human low density lipoprotein (ac-LDL) to increase the intracellular concentration of cholesterol and promote esterification. At 41 hours, various inhibitors were added to the cells in DMSO (10 μl/ml maximum). At 43 hours, the cells were pulsed with 0.1 mM ^14 C-oleic acid (10,000 dpm/nmol) complexed with BSA (bovine serum albumin) to follow cholesterol ester formation. The experiment was terminated at 45 hours by washing the monolayers 3 times with 3 ml of Tris-buffered saline at 4° C. The lipids were extracted by incubating the monolayers with 1.5 ml of hexane:isopropanol (3:2, v/v) for 30 min. under gentle agitation. During this period, 10,000 dpm 3H-cholesteryl linoleate and 10 μg of cholesteryl oleate were added as an internal standard and carrier respectively. The organic solvent was removed and the cells were washed with an additional 1.0 ml of hexane: isopropanol which was combined with the original extract. The cells were allowed to dry overnight, digested with 1.5 ml of 0.2N sodium hydroxide for 1 hour and an aliquot of the solubilized protein used for protein determination using the Lowry method. The organic extract was taken to dryness, the residue resuspended in 100 μl of chloroform and the lipids separated on silica gel impregnated glass fiber plates using a hexane:diethylether:acetic acid (170:30:1, v/v/v) solvent system. Individual lipids were visualized with iodine and the cholesteryl ester spot cut out and transferred to scintillation vials to determine the amount of radioactivity. The conversion of oleic acid to cholesteryl ester in the control averaged 0.54 […] and was increased upon the addition of ac-LDL to about 10.69±0.69 […]. […] It should be noted that many of the intermediates had inhibitory activity in the in vitro ACAT assay and in the macrophage assay.

[3] = rat hepatic microsomes, 75 μM 14C-oleoyl-CoA, pH 7.4, 37° C., read-out: In Vitro ACAT IC50
[4] = J774.A1 macrophages loaded with ac-LDL, 14C-oleic acid, read-out: Cholesterol Esterification IC50
[5] = In Vitro ACAT IC50, rat hepatic microsomes, 75 μM 14C-oleoyl-CoA, pH 7.4, 37° C.

Row | SMILES | IC50 [1, 3] [µM] | IC50 [2, 4] [µM] | IC50 ([1]; intermediate, read-out: IC50 in the in vitro ACAT assay) [µM] | IC50 ([2]; intermediate, read-out: IC50 in the macrophage assay) [µM] | IC50 [1, 5] [µM]
1 | CCCCCCCN(CCCCCSc1nc(-c2ccccc2)c(-c2ccccc2)[nH]1)C(=O)Nc1ccc(OC)cc1OC [Example 5, N'-(2,4-dimethoxyphenyl)-N-[5-(4,5-diphenyl-1H-imidazol-2-ylthio)pentyl]-N-heptylurea] | 0.012 | 2.5 | – | – | –
2 | CCCCCCCN(CCCCCSc1nc(-c2ccccc2)c(-c2ccccc2)[nH]1)C(=O)OCc1ccccc1 [Example 408, (Phenylmethyl) [5-(4,5-diphenyl-1H-imidazol-2-ylthio)pentyl]heptylcarbamate] | 0.009 | 1.3 | – | – | –
3 | CCCCCCCN(CCCCCSc1nc(CCC)c(CCC)[nH]1)C(=O)Nc1ccc(F)cc1F [Example 193, N'-(2,4-difluorophenyl)-N-[5-(4,5-dipropyl-1H-imidazol-2-ylthio)pentyl]-N-heptylurea] | 0.06 | 2.7 | – | – | –
4 | CCCCCCCN(CCCCCSc1nc(-c2ccc(OC)cc2)c(-c2ccc(OC)cc2)[nH]1)CCc1ccc(F)cc1F [Example 353, N-[5-[4,5-bis(4-methoxyphenyl)-1H-imidazol-2-ylthio]pentyl]-2,4-difluoro-N-heptylbenzeneethaneamine] | 0.24 | 0.08 | – | – | –
5 | CCCCN(CCCCCCCCSc1nc(-c2ccccc2)c(-c2ccccc2)[nH]1)C(=O)Nc1ccc(F)cc1F [Example 4, N-butyl-N'-(2,4-difluorophenyl)-N-[8-(4,5-diphenyl-1H-imidazol-2-ylthio)octyl]urea] | 0.06 | 4.6 | – | – | –
6 | CCCCCCCN(CCCCCSc1nc(-c2ccc(OC)cc2)c(-c2ccc(OC)cc2)[nH]1)C(=O)Cc1ccc(Cl)c(Cl)c1 [Example 349] | 0.2 | 0.09 | – | – | –
7 | CCCCCCCCNC(=O)N(CCCCCCC)CCCCCSc1nc(-c2ccccc2)c(-c2ccccc2)[nH]1 [Example 97, N-[5-(4,5-diphenyl-1H-imidazol-2-ylthio)pentyl]-N-heptyl-N'-octylurea] | 0.025 | 0.7 | – | – | –
8 | CCCCCCCN(CCCCCSc1nc(-c2ccccc2)c(-c2ccccc2)[nH]1)C(=O)OCCC [Example 407, Propyl [5-(4,5-diphenyl-1H-imidazol-2-ylthio)pentyl]heptylcarbamate] | 0.04 | 0.8 | – | – | –
9 | CCCCCCCNCCCCCSc1nc(-c2ccccc2)c(-c2ccccc2)[nH]1 [N-[5(4,5-diphenyl-1H-imidazol-2-ylthio)pentyl]-1-heptanaminehydrochloride] | – | – | 0.1 | 6 | –
10 | CCCCCCCN(CCCCCSc1nc(-c2ccc(Cl)cc2)c(-c2ccc(Cl)cc2)[nH]1)C(=O)Nc1ccc(F)cc1F [Example 137] | 0.076 | 3.4 | – | – | –
11 | CCCCCCCN(CCCCCSc1nc(-c2ccc(OC)cc2)c(-c2ccc(OC)cc2)[nH]1)C(=O)NC(C)C [Example 202, N-[5-[4,5-bis(4-methoxyphenyl)-1H-imidazol-2-ylthio]pentyl]-N-heptyl-N'-(1-methylethyl)urea] | 0.22 | 0.004 | – | – | –
12 | CCCCCCCN(CCCCCSc1nc(-c2ccc(C)cc2)c(-c2ccc(C)cc2)[nH]1)C(=O)Nc1ccc(F)cc1F [Example 122, N-[5-[4,5-bis(4-methylphenyl)-1H-imidazol-2-ylthio]pentyl]-N'-(2,4-difluorophenyl)-N-heptylurea] | 0.08 | 0.3 | – | – | –
13 | CCCCCCCN(CCCCCSc1nc(-c2ccccc2)c(-c2ccccc2)n1-c1ccccc1)C(=O)Nc1ccc(F)cc1F [Example 20] | 0.02 | 54.5 | – | – | –
14 | CCCCCCCN(CCCCCSc1nc(-c2ccccc2)c(-c2ccccc2)[nH]1)C(=O)CCCC [Example 342, N-[5-(4,5-diphenyl-1H-imidazol-2-ylthio)pentyl]-N-heptylpentanamide] | 0.03 | 1.6 | – | – | –
15 | CCCCCCCN(CCCCCSc1nc(-c2cccs2)c(-c2cccs2)[nH]1)C(=O)Nc1ccc(F)cc1F [Example 110, N-[5-[4,5-bis(2-thienyl)-1H-imidazol-2-ylthio]pentyl]-N'-(2,4-difluorophenyl)-N-heptylurea] | 0.06 | 0.9 | – | – | –
16 | CCCCCCCN(CCCCCSc1nc(-c2ccc(F)cc2)c(-c2ccc(F)cc2)[nH]1)C(=O)Nc1ccc(F)cc1F [Example 114, N-[5-[4,5-bis(4-fluorophenyl)-1H-imidazol-2-ylthio]pentyl]-N'-(2,4-difluorophenyl)-N-heptylurea] | 0.04 | 3.5 | – | – | –
17 | CCCCCCCN(CCCCCSc1nc(-c2ccc(OC)cc2)c(-c2ccc(OC)cc2)[nH]1)C(=O)Oc1ccccc1 [Example 410] | – | 0.03 | – | – | 0.64
18 | CCCCCCCN(CCCCCSc1nc(-c2ccc(N(C)C)cc2)c(-c2ccc(N(C)C)cc2)[nH]1)C(=O)CC1CCCCC1 [Example 354] | 0.05 | 0.02 | – | – | –
19 | CCCCCCCN(CCCCCSc1nc2c([nH]1)-c1ccccc1Oc1ccccc1-2)C(=O)Nc1ccc(F)cc1F [Example 212, N-[5-(1H-dibenz[2,3:6,7]oxedino[4,5-d]imidazol-2-ylthio)pentyl]-N'-(2,4-difluorophenyl)-N-heptylurea] | 0.06 | 1.7 | – | – | –
20 | CCCCCCCN(CCCCCSc1nc(-c2ccccc2)c(-c2ccccc2)[nH]1)C(=S)NCCC [Example 299, N-[5-(4,5-diphenyl-1H-imidazol-2-ylthio)pentyl]-N-heptyl-N'-propylthiourea] | 0.14 | 1.2 | – | – | –
21 | CCCCCCCN(CCCCCSc1nc(-c2ccccc2)c(-c2ccc(N(C)C)cc2)[nH]1)C(=O)Nc1ccc(F)cc1F [Example 200] | 0.71 | 0.8 | – | – | –
22 | CCCCCCCN(CCCCCSc1nc(-c2ccc(N(C)C)cc2)c(-c2ccc(N(C)C)cc2)[nH]1)C(=O)Oc1ccccc1 [Example 409, Phenyl [5-[4,5-bis(4-(dimethylamino)phenyl)-1H-imidazol-2-ylthio]pentyl]heptylcarbamate] | – | – | – | – | 0.12
23 | CCCCN(CCCCCCCCSc1nc(-c2ccccc2)c(-c2ccccc2)[nH]1)C(=O)NC(C)C [Example 262] | 0.2 | – | – | – | –
